Results on seven compounds are retold here after patent US7700088B2, “Interleukin-9 mutein peptides” (Genaera Corporation, priority 1995, dated 2010).

Entries after “also recorded” stand apart in the source; their conditions may differ.

In test [1] the test system is IL-9 mediated MO7e proliferation. Put plainly: Inhibition of IL-9 mediated MO7e proliferation (acid phosphatase cell proliferation assay). The test is classed as cell-based, human. The following applies: for inhibition of cellular growth induced by IL-9 (antagonism of IL-9): peptides incubated with MO7e cells, compared with control (no peptide); for inhibition of cellular growth induced by IL-9: tyrophostins incubated with MO7e cells, compared with control (no treatment). Here is the method: Cell lines were used to assess the function of peptides, aminosterols, tyrophostins, rhIL-9, rmIL-9, and recombinant mutant forms of these proteins as well as all other compounds that block IL-9 function. A proliferative response was measured and compared to each of the other cytokines, variant or mutant forms of Il-9, or IL-9 antagonists. In addition, compounds were tested for their ability to antagonize the baseline proliferative response. Once a baseline proliferative response was established for a cytokine a statistically significant loss of response in assays repeated three times in triplicate was considered evidence for antagonism. A true antagonistic response was differentiated from cellular toxicity by direct observation, trypan blue staining (a technique well known to one of normal skill in the art), and loss of acid phosphatase activity. Specificity was assessed for the antagonist by evaluating whether the activity was substantially expressed against other proliferative agents such as steel factor, interleukin 3, or interleukin 4.
The MO7e line is a human megakaryoblastic cell line, cultured in RPMI 1640 (GIBCO/BRL, Gaithersburg, Md.), 20% Fetal Bovine Serum (Hyclone) and 10 ng/ml IL-3 (R&D Systems, Minneapolis, Minn.). The MJ line is a cytokine independent human lymphoblastoid cell line grown in RPMI 1640 (GIBCO/BRL) K562 is a human erthroleukemia cell line, cultured in RPMI 1640 (GIBCO/BRL) and 10% fetal bovine serum (Hyclone). C8166-45 is a IL-9 receptor bearing line, cultured in RPMI 1640 GIBCO/BRL) and 10% Fetal bovine serum (Hyclone). All the cell lines respond to cytokines including IL-9. The cell lines are fed and reseeded at 2×10^5 cells/ml every 72 hours.
The cells were centrifuged for 10 minutes at 2000 rpm and resuspended in RPMI 1640 with 0.5% Bovine Serum Albumin (GIBCO/BRL, Gaithersburg, Md.) and insulin-transferrin-selenium (ITS) cofactors (GIBCO/BRL, Gaithersburg, Md.). Cells were counted using a hemocytometer and diluted to a concentration of 1×10^5 cells/ml and plated in a 96-well microtiter plate. Each well contained 0.15 or 0.2 ml giving a final concentration of 2×10^4 cells per well.
MO7e cells were stimulated with 50 ng/ml Stem Cell Factor (SCF) (R&D Systems, Minneapolis, Minn.) alone, 50 ng/ml SCF plus 50 ng/ml IL-3 (R&D Systems, Minneapolis, Minn.), or 50 ng/ml SCF plus 50 ng/ml IL-9. A control was included which contains cells and basal media only. Serial dilutions of test compounds (i.e., recombinant IL-9 proteins, peptides, small molecules) were added to each test condition in triplicate. The MJ cell line was used as an independent control for nonspecific cytotoxicity. Cultures were incubated for 72-96 hours at 37° C. in 5% CO2.
Cell proliferation was assayed using the Abacus Cell Proliferation Kit (Clontech, Palo Alto, Calif.) which determines the amount of intracellular acid phosphatase present as an indication of cell number. The substrate p-nitrophenyl phosphate (pNPP) was converted by acid phosphatase to p-nitrophenol which was measured as an indicator of enzyme concentration. pNPP was added to each well and incubated at 37° C. for one hour. 1N sodium hydroxide was then added to stop the enzymatic reaction, and the amount of p-nitrophenol was quantified using a Dynatech 2000 plate reader (Dynatech Laboratories, Chantilly, Va.) at 410 nm wavelength. Standard curves that compare cell number with optical absorbance were used to determine the linear range of the assay. Assay results were only used when absorbance measurements are within the linear range of the assay.

Another test addresses T1, Soluble IL-9 receptor (Homo sapiens, UniProt Q01113).
T1 construct: Soluble IL-9 receptor including amino acids 44 to 270 (R&D Systems); purchased R&D Systems
T1 sequence (Q01113 44-270): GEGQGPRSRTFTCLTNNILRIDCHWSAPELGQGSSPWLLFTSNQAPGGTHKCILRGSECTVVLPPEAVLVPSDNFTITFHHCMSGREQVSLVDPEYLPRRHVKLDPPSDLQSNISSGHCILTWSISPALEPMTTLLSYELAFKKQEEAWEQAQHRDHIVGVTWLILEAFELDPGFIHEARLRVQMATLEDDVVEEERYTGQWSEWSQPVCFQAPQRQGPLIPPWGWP
The test is described as follows: Binding of recombinant IL-9 forms to soluble IL-9 receptor (anti-FLAG immunoprecipitation, Western blot). The following applies: 0.5 micrograms soluble receptor (amino acids 44 to 270), PBS, room temperature, 30 minutes. The protocol: Soluble IL-9 receptor including amino acids 44 to 270 (R&D Systems) was incubated with different forms of human recombinant IL-9. Varying amounts of FlagMet117 and FlagThr117 (described in Example 7) were incubated in PBS at room temperature for 30 minutes with 0.5 micrograms of soluble receptor. EBC buffer (50 mM Tris pH 7.5; 0.1 M NaCl; 0.5% NP40) was added (300 microliters) was added along with 1 microgram of anti-FLAG monoclonal antibody (IBI) and incubated for 1 hour on ice. Forty microliters of protein A sepharose solution was added to each sample and mixed for 1 hour at 4° C. Samples were centrifuged for 1 minute 11,000×G and pellets were washed 4 times with 500 microliters of EBC. Pellets were dissolved in 26 microliters of 2×SDS buffer, boiled for 4 minutes, and electrophoresed through an 18% SDS polyacrylamide gel. Western blots were performed as described in Example 15 except the blots were probed with an anti-IL-9 receptor antibody (R&D Systems).

On to “KP-20: antagonistic peptide derived from IL-9 exon 4, IL-9 residues 71-90, SEQ. ID NO: 14 (FSRVKKSVEVLKNNKAPY)”, for which the “inhibition of cellular growth induced by IL-9 (antagonism of IL-9)” value (from here on “inhibition … (antagonism of IL-9)”) in test [1] is reported as “considerable inhibitory activity; also recorded: act as IL-9 antagonists”.

`N#C/C(=C\c1ccc(O)c(O)c1)C(=O)NCCCc1ccccc1` [Tyrophostin B46, reference compound]: in test [1], the “inhibition of cellular growth induced by IL-9” value is “greatest inhibition”.

With `N#C/C(=C\c1ccc(O)c(O)c1)C(=O)NCCCCc1ccccc1` [Tyrophostin B56, reference compound], the “inhibition of cellular growth induced by IL-9” value in test [1] is “greatest inhibition”.

For the compound “IL-9 FlagMet117: purified recombinant human FLAG IL-9 fusion protein with methionine at position 117”, in the test with Soluble IL-9 receptor, the “binding to soluble IL-9 receptor” value is listed as “bound to the soluble receptor”.

Take “KP-16: antagonistic peptide derived from IL-9 exon 4, IL-9 residues 43-60, SEQ. ID NO: 13 (SDNATRPAFSERLSQMTN)”: in test [1], the “inhibition … (antagonism of IL-9)” value is listed as “considerable inhibitory activity; also recorded: act as IL-9 antagonists”.

Consider “KP-24: peptide derived from IL-9 exon 5, SEQ ID NO: 16, spanning the codon 117 polymorphism (TAGNALTFLKSLLEIFQK; Residues 99-116 of Mature hIL-9 Receptor)”, for which, in test [1], the “inhibition … (antagonism of IL-9)” value was “antagonistic properties”.

Consider “KP-23: peptide derived from IL-9 exon 5, SEQ ID NO: 15, spanning the codon 117 polymorphism (EQPANQTTAGNALTFLKS)”, for which the “inhibition … (antagonism of IL-9)” value in test [1] was “antagonistic properties”.
